Experimental data reported in patent publication US20110060029A1, “METHOD OF TREATING CANCER BY MODULATING EPAC” (priority 2009, published 2011).
Entries after “also recorded” stand apart in the source; their conditions may differ.

Assays:
SK-Mel-24 = experiment: Migration assay (Boyden chambers) in SK-Mel-24; format: cell-based, human; details: FIG. 1A; for cell migration: 50 μM agonist
Procedure: (§1) Cell Culture—SK-Mel-2 and SK-Mel-24 (ATCC) cell lines were cultured in Eagle's Minimum Essential Medium supplemented with 10% fetal bovine serum at 37° C./5% CO2. HEMA-LP human melanocytes (Cascade Biologics) were maintained in Medium 254 with Human Melanocyte Growth Supplement (Cascade Biologics).
(§2) Adenoviral Overexpression—Recombinant adenoviruses containing human LacZ, Epac1 or Epac2 were constructed (Adeno-X Expression System, Clontech). Human Epac1 and Epac2 cDNA were kindly provided by Dr. J. L Bos (University Medical Center, Utrecht, Netherlands). Adenovirus of PKA alpha subunit was purchased from Vector Biolabs. The corresponding encoding sequence was cloned in topShuttle2 (Clontech) to obtain a mammalian expression cassette, which was then excised and ligated into BD Adeno-X Viral DNA. The recombinant vector was introduced into human embryonic kidney cells (HEK293) to recover infectious adenovirus. Viruses were propagated in HEK293 cells, and purified by BD Adeno-X Virus Purification Kits. Viral titer was determined by Adeno-X Rapid Titer Kit (Clontech). As a control study, adenovirus vector harboring LacZ was used at the same MOI. Cells were infected with adenovirus for 24 hand subjected to each experiment. In some experiments (For HS production and NDST-1 expression, FIGS. 5B, 5C, 5D, 5E, 5F and 5G), cells were further incubated for 48 h in medium without adenovirus followed by each experiment.
Migration assay—Migration assay was performed using methods previously known in the art using the Boyden chambers (pore size 8 μm, BD Biosciences). The upper chamber's polycarbonate insert film parts were coated by 75 μl fibronectin (50 μg/ml in PBS, Biosciences). Cultured cells were detached and the number of the cells was adjusted to 1×10^3 cells/μl of media. One-hundred micro liter of the cell suspension was applied to the center of the upper chamber and then attached to the lower chamber. […] After mechanical removing of the cells on the upper surface of the membrane with a cotton swab, cells that migrated onto the lower surface of the membrane were counted. […]

[1] = tested on: HEMA-LP human melanocytes; experiment: Migration assay (Boyden chambers) in HEMA-LP melanocytes; format: cell-based; details: HEMA-LP melanocyte; 50 μM agonist; FIG. 1A
Procedure: as §1
as §2, with “As a control study, adenovirus vector harboring LacZ was used at the same MOI. Cells were infected with adenovirus for 24 hand subjected to each experiment. In some experiments (For HS production and NDST-1 expression, FIGS. 5B, 5C, 5D, 5E, 5F and 5G), cells were further incubated for 48 h in medium without adenovirus followed by each experiment.” left out
Migration assay—Migration assay was performed using methods previously known in the art using the Boyden chambers (pore size 8 μm, BD Biosciences). […] After mechanical removing of the cells on the upper surface of the membrane with a cotton swab, cells that migrated onto the lower surface of the membrane were counted. […]

SK-Mel-2 = experiment: Migration assay (Boyden chambers) in SK-Mel-2; format: cell-based, human; details: for cell migration: 50 μM agonist
Procedure: as §1, §2
(§3) Migration assay—Migration assay was performed using methods previously known in the art using the Boyden chambers (pore size 8 μm, BD Biosciences). The upper chamber's polycarbonate insert film parts were coated by 75 μl fibronectin (50 μg/ml in PBS, Biosciences). Cultured cells were detached and the number of the cells was adjusted to 1×10^3 cells/μl of media. One-hundred micro liter of the cell suspension was applied to the center of the upper chamber and then attached to the lower chamber. Thereafter, the cells were incubated in CO2 incubator at 37° C. for 3 h unless specified. After fixation with 10% formalin neutral solution, cells were stained with Diff-Quick kit (Dade Behring). After mechanical removing of the cells on the upper surface of the membrane with a cotton swab, cells that migrated onto the lower surface of the membrane were counted. Pictures were taken with a microscope followed by counting migrated cells with Image J software in randomly chosen 10 fields.
Transfection of siRNA—Epac1 siRNA (Ambion), syndecan-2 siRNA (Ambion) and NDST-1 siRNA (QIAGEN) were transfected into subconfluent SK-Mel-2 cells using Lipofectamine 2000 (Invitrogen). For Epac1, a pool of double-stranded siRNAs containing equal parts of the following antisense sequence was used: 5′-AUCACUGUAUACCGGUUCC-3′ (SEQ ID NO: 1). For syndecan-2, a pool of double-stranded siRNAs containing equal parts of the following antisense sequence was used: 5′-CUCUGGACUCUCUACAUCC-3′ (SEQ ID NO: 2). For NDST-1, a pool of double-stranded siRNAs containing equal parts of the following antisense sequence was used: 5′-UUUAUUAGCAGUUAGUUCG-3′ (SEQ ID NO: 3). The corresponding non-targeting siRNA Silencer negative Control #2 siRNA (AM4613, Ambion) was used as a negative control. Twenty-four hours later, the medium containing siRNA was changed to fresh medium and incubated for 72 h. When siRNA transfection was combined with adenoviral infection, siRNA transfection followed the adenoviral infection.

[2] = tested on: Cloudman S91 melanoma cell line; experiment: Migration assay in Cloudman S91 melanoma cells; format: cell-based, mouse; details: 50 μM 8-pMeOPT, FIG. 6B
Procedure: as §3
Lung colonization assay—To examine the metastatic potential of melanoma cells, lung colonization assay was performed using methods known in the art. […] Two weeks after the injection, the number of metastatic colonies on the surface of the lungs were counted under a dissection microscope. […]

[3] = tested on: syndecan-2 colocalization with lipid rafts; experiment: Immunocytochemical staining of syndecan-2 and lipid rafts in SK-Mel-2; format: cell-based, human; details: for colocalization of syndecan-2 with lipid rafts: SK-Mel-2, 50 μM 8-pMeOPT for 15 min; for Epac1-induced syndecan-2 colocalization with lipid rafts: SK-Mel-2 overexpressing Epac1, NCD 10 μM for 3 h, FIG. 3D
Procedure: (§4) Immunocytochemistry—Immunocytochemistry was performed using methods previously known in the art. SK-Mel-2 on glass coverslips were fixed, washed and permeabilized with 0.02% Triton-X followed by incubation with primary and secondary antibodies for 30 min at room temperature. Alexa Fluor 488- and 594-conjugated goat anti-rabbit or anti-mouse antibodies (Molecular Probes) were used. The pictures were taken with a digital camera operated on a Nikon Eclipse TE200 or a confocal microscope (Zeiss Axiovert 100M). For mounting media, Prolong-Gold antifade with DAPI (Molecular Probes) was used.

tubulin = experiment: Immunocytochemical staining with tubulin in SK-Mel-2; format: cell-based, human; details: SK-Mel-2 overexpressing Epac1; NCD 10 μM for 3 h; FIG. 3C
Procedure: as §4

[4] = tested on: syndecan-2 in lipid rafts-rich fraction; experiment: Immunoblot for syndecan-2 in lipid rafts-rich fraction (sucrose density gradient) of SK-Mel-2; format: cell-based, human; details: SK-Mel-2 overexpressing Epac1; 10 μM NCD for 3 h; FIG. 3E
Procedure: Western Blotting—Western blot analysis was performed using methods previously known in the art. Cells were lysed and sonicated in lysis buffer containing 25 mM Tris-HCl (pH7.5), 150 mM NaCl, 5 mM MgCl2, 1% NP-40, 1 mM DTT, 5% glycerol, phosphatase inhibitor (Sigma), protease inhibitor cocktail (Sigma) and 1 mM NaF. Equal amounts of protein (20 μg) were subjected to SDS-PAGE. After protein separation by electrophoresis, samples were transferred to Millipore Immobilon-P membrane and immunoblotting with antibodies was performed. Signal intensities of the bands were quantified with Image J software (NIH). Sucrose density gradient centrifugation—Lipid rafts-enriched membrane fractions were prepared using methods previously known in the art. Briefly, SK-Mel-2 cells were homogenated in 2 ml of 500 mM sodium carbonate (pH 11.0) with protease inhibitors (1 μg/ml leupeptin, 0.1 mM PMSF and 50 U/ml egg white trypsin inhibitor) and lysed by sonication. The lysate was then adjusted to 45% sucrose by mixing with 2 ml of 90% sucrose prepared in MBS buffer (25 mM 2-Morpholinoethanesulfonic acid (MES), pH 6.5, […]) and placed at the bottom of 5% and 35% discontinuous sucrose gradient (in MBS buffer containing 100 mM sodium carbonate) for an overnight ultra-centrifugation (260,000 g). Fractions were removed sequentially from the top and designated as fractions 1 through 13. […]

CCCC(=O)Nc1ncnc2c1ncn2[C@@H]1O[C@@H]2COP(=O)(O)O[C@H]2[C@H]1O [6-MB-cAMP, N6-Monobutyryladenosine-3′,5′-cyclic monophosphate]
cell migration (SK-Mel-24): did not increase cell migration; also recorded: neither 6-MB-cAMP nor PKA overexpression, increased melanoma cell migration | cell migration [1]: did not increase cell migration | cell migration (SK-Mel-2; SK-Mel-2, FIG. 1A): did not increase cell migration; also recorded: neither 6-MB-cAMP nor PKA overexpression, increased melanoma cell migration

COc1ccc(Sc2nc3c(N)ncnc3n2[C@@H]2O[C@@H]3COP(=O)(O)O[C@H]3[C@H]2OC)cc1 [8-pMeOPT, 8-pMeOPT-2-O-Me-cAMP]
migration [2]: increased migration | cell migration, combination with overexpression of Epacs over Epac overexpression alone (SK-Mel-24; 50 μM 8-pMeOPT): such increase was not observed | cell migration (SK-Mel-24): increased melanoma cell migration | cell migration [1]: not in a melanocyte cell line | colocalization of syndecan-2 with lipid rafts ([3]; FIG. 2A): increased colocalization of syndecan-2 with lipid rafts | colocalization of syndecan-2 with lipid rafts ([3]; FIG. 2A, listed as Epac agonist): increased co-localization of syndecan-2 with lipid rafts | cell migration, combination with overexpression of Epacs over Epac overexpression alone (SK-Mel-2; SK-Mel-2, 50 μM 8-pMeOPT, FIG. 1A): further increased cell migration | cell migration (SK-Mel-2; SK-Mel-2, FIG. 1A): increased melanoma cell migration

COC(=O)Nc1nc2ccc(C(=O)c3cccs3)cc2[nH]1 [NCD, Nocodazole]
Epac1-induced fine tubulin network formation (tubulin): network formation was inhibited | syndecan-2 expression in lipid raft-rich fraction [4]: decreased expression of sydecan-2 in the lipid rafts-rich fraction; also recorded: decreased syndecan-2 expression in lipid raft-rich fraction | Epac1-induced syndecan-2 colocalization with lipid rafts [3]: decreased Epac1-induced syndecan-2 colocalization with lipid rafts | Epac1-induced syndecan-2 colocalization with lipid rafts ([3]; listed as Nocodazole): decreased the colocalization of syndecan-2 with lipid rafts | Epac1-induced migration (SK-Mel-2; SK-Mel-2 overexpressing Epac1, NCD 10 μM, FIG. 3F): inhibited Epac-induced migration; also recorded: inhibited Epac1-induced migration

[Na+].[O-][Cl+2]([O-])[O-] [sodium chlorate]
Epac-induced migration (SK-Mel-2; sodium chlorate, data not shown): decreased Epac-induced migration

cyclodextrin [CXD]
Epac1-overexpression-induced colocalization of syndecan-2 with lipid rafts ([3]; SK-Mel-2 with Epac1 adenovirus, 10 μg/ml CXD, FIG. 2A): decreased Epac-induced syndecan-2 colocalization with lipid-rafts; also recorded: decreased Epac1-overexpression-induced colocalization of syndecan-2 with lipid rafts | Epac1 overexpression-induced migration (SK-Mel-2; SK-Mel-2 overexpressing Epac1, 10 μg/ml CXD, FIG. 2C): inhibited; also recorded: decreased Epac1 overexpression-induced migration | basal migration (SK-Mel-2; SK-Mel-2 overexpressing LacZ, 10 μg/ml CXD, assay 8 h, FIG. 2C): inhibited
